In patent US20250296971A1, “GASTRIC INHIBITORY PEPTIDE RECEPTOR LIGANDS” (priority 2021, published 2025):
*1 amine or outer side, *2 acyl side, *3 side chain or, on linkers, in order; H or OH if unused. Where a SMILES comes first, the peptide text is derived from it. Bridges are numbered along the chain shown (N, C = ends). [ ]: non-standard residue; d: D form. The star is where a group is joined. NH(1-deoxy-D-glucityl) = OC[C@@H](O)[C@@H](O)[C@H](O)[C@@H](O)CN*; DO3AM = NC(=O)CN1CCN(CC(N)=O)CCN(CC(=O)*)CCN(CC(N)=O)CC1; DOTA = O=C(O)CN1CCN(CC(=O)O)CCN(CC(=O)*)CCN(CC(=O)O)CC1; Trp(5-Cl) = N[C@@H](Cc1c[nH]c2ccc(Cl)cc12)C(=O)O; Pyridine(2,6-diCH2) = c1cc(C[*:1])nc(C[*:2])c1; Trp(5-F) = N[C@@H](Cc1c[nH]c2ccc(F)cc12)C(=O)O; Pro(4R-NH2) = N[C@H]1CN[C@H](C(=O)O)C1; 1Nal = N[C@@H](Cc1cccc2ccccc12)C(=O)O; Glutaryl = O=C(CCCC(=O)[*:2])[*:1]; Hyp = O=C(O)[C@@H]1C[C@@H](O)CN1; X1 = O=C(CN1CCC(N[*:1])CC1)[*:2]; Cha = N[C@@H](CC1CCCCC1)C(=O)O; αMeK = C[C@](N)(CCCCN)C(=O)O; hCys = N[C@@H](CCS)C(=O)O; Api = NC1(C(=O)O)CCNCC1; Thp = NC1(C(=O)O)CCOCC1; Bn = c1ccc(C*)cc1

biological target: T1, GIPR (CHO-K1-hGIPR cells) (Homo sapiens, UniProt P48546); assay: FACS binding assay; conditions: competition with 20 nM GIP-057, 4° C. for 1 hour, read-out: pIC50 Category (converted)
T1 construct: host or cells: CHO-K1
T1 sequence (P48546 22-466): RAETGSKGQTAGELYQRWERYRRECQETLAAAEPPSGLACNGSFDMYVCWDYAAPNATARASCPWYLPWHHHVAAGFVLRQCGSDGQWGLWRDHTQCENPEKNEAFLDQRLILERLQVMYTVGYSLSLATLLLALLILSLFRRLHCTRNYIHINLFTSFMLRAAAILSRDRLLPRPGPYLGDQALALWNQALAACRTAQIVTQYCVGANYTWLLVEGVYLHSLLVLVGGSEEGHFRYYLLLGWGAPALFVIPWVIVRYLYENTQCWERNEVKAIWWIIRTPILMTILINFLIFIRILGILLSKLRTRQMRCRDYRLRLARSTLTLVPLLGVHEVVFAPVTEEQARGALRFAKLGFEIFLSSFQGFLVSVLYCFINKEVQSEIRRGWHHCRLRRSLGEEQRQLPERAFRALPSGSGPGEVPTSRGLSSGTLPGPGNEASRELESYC
Procedure, shortened: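 CHO-K1 cells stably expressing human GIPR were detached with Accutase, suspended at 500.000 cells per mL in PBS with 1% FCS, and washed ice-cold. Bound peptide was detected with 1 μg/mL APC-streptavidin for 30 min on ice.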

| IC50 [nM] | SMILES |
| --- | --- |
| < 10 | CC[C@H](C)[C@@H]1NC(=O)[C@H](CC(C)C)NC(=O)C2(CCOCC2)NC(=O)[C@@H](NC(=O)[C@@H](CC(C)C)NC(=O)[C@H](CCC(=O)O)NC(=O)[C@@H]2C[C@@H](O)CN2C(=O)[C@H](Cc2c[nH]c3ccc(Cl)cc23)NC(=O)[C@H](Cc2c[nH]c3ccc(Cl)cc23)NC(=O)[C@H](CC(=O)O)NC(C)=O)CSCc2cccc(n2)CSC[C@@H](C(N)=O)NC1=O [GIP-379, Ac-Asp-5Clw-5Clw-Hyp-Glu-leu-[Cys(2Lut)-Thp-Leu-Ile-Cys]-NH2] (Ac-D[Trp(5-Cl)][Trp(5-Cl)][Hyp]E[dL]C[Thp]LIC-NH2; linker 7-11 via Pyridine(2,6-diCH2)) |
| < 10 | CC[C@H](C)[C@@H]1NC(=O)[C@H](CC(C)C)NC(=O)C2(CCOCC2)NC(=O)[C@@H](NC(=O)[C@@H](CC(C)C)NC(=O)[C@H](CCC(=O)O)NC(=O)[C@@H]2C[C@@H](O)CN2C(=O)[C@H](Cc2c[nH]c3ccc(Cl)cc23)NC(=O)[C@H](Cc2cccc3ccccc23)NC(=O)[C@H](CC(=O)O)NC(C)=O)CSCc2cccc(n2)CSC[C@@H](C(N)=O)NC1=O [GIP-380, Ac-Asp-1Ni-5Clw-Hyp-Glu-leu-[Cys(2Lut)-Thp-Leu-Ile-Cys]-NH2] (Ac-D[1Nal][Trp(5-Cl)][Hyp]E[dL]C[Thp]LIC-NH2; linker 7-11 via Pyridine(2,6-diCH2)) |
| < 10 | CC[C@H](C)[C@@H]1NC(=O)[C@H](CC(C)C)NC(=O)C2(CCOCC2)NC(=O)[C@@H](NC(=O)[C@@H](CC(C)C)NC(=O)[C@H](CCC(=O)O)NC(=O)[C@@H]2C[C@@H](O)CN2C(=O)[C@H](Cc2c[nH]c3ccc(Cl)cc23)NC(=O)[C@H](Cc2c[nH]c3ccccc23)NC(=O)[C@@H](CC(=O)O)NC(C)=O)CSCc2cccc(n2)CSC[C@@H](C(N)=O)NC1=O [GIP-381, Ac-asp-Trp-5Clw-Hyp-Glu-leu-[Cys(2Lut)-Thp-Leu-Ile-Cys]-NH2] (Ac-[dD]W[Trp(5-Cl)][Hyp]E[dL]C[Thp]LIC-NH2; linker 7-11 via Pyridine(2,6-diCH2)) |
| < 10 | CC[C@H](C)[C@@H]1NC(=O)[C@H](CC(C)C)NC(=O)C2(CCOCC2)NC(=O)[C@@H](NC(=O)[C@@H](CC(C)C)NC(=O)[C@H](CCC(=O)O)NC(=O)[C@@H]2C[C@@H](O)CN2C(=O)[C@H](Cc2c[nH]c3ccc(Cl)cc23)NC(=O)[C@H](Cc2c[nH]c3ccc(F)cc23)NC(=O)[C@H](CC(=O)O)NC(C)=O)CSCc2cccc(n2)CSC[C@@H](C(N)=O)NC1=O [GIP-382, Ac-Asp-5Fw-5Clw-Hyp-Glu-leu-[Cys(2Lut)-Thp-Leu-Ile-Cys]-NH2] (Ac-D[Trp(5-F)][Trp(5-Cl)][Hyp]E[dL]C[Thp]LIC-NH2; linker 7-11 via Pyridine(2,6-diCH2)) |
| < 10 | CC[C@H](C)[C@@H]1NC(=O)[C@H](CC(C)C)NC(=O)C2(CCOCC2)NC(=O)[C@@H](NC(=O)[C@@H](CC(C)C)NC(=O)[C@H](CO)NC(=O)[C@@H]2C[C@@H](O)CN2C(=O)[C@H](Cc2c[nH]c3ccc(Cl)cc23)NC(=O)[C@H](Cc2c[nH]c3ccccc23)NC(=O)[C@H](CC(=O)O)NC(C)=O)CSCc2cccc(n2)CSC[C@@H](C(N)=O)NC1=O [GIP-384, Ac-Asp-Trp-5Clw-Hyp-Ser-leu-[Cys(2Lut)-Thp-Leu-Ile-Cys]-NH2] (Ac-DW[Trp(5-Cl)][Hyp]S[dL]C[Thp]LIC-NH2; linker 7-11 via Pyridine(2,6-diCH2)) |
| < 10 | CC[C@H](C)[C@@H]1NC(=O)[C@H](CC(C)C)NC(=O)C2(CCOCC2)NC(=O)[C@@H](NC(=O)[C@@H](CC(C)C)NC(=O)[C@@H](NC(=O)[C@@H]2C[C@@H](O)CN2C(=O)[C@H](Cc2c[nH]c3ccc(Cl)cc23)NC(=O)[C@H](Cc2c[nH]c3ccccc23)NC(=O)[C@H](CC(=O)O)NC(C)=O)C(C)C)CSCc2cccc(n2)CSC[C@@H](C(N)=O)NC1=O [GIP-385, Ac-Asp-Trp-5Clw-Hyp-Val-leu-[Cys(2Lut)-Thp-Leu-Ile-Cys]-NH2] (Ac-DW[Trp(5-Cl)][Hyp]V[dL]C[Thp]LIC-NH2; linker 7-11 via Pyridine(2,6-diCH2)) |
| < 10 | CC[C@H](C)[C@@H]1NC(=O)[C@H](CC(C)C)NC(=O)C2(CCOCC2)NC(=O)[C@@H](NC(=O)[C@@H](CC(C)C)NC(=O)[C@H](C)NC(=O)[C@@H]2C[C@@H](O)CN2C(=O)[C@H](Cc2c[nH]c3ccc(Cl)cc23)NC(=O)[C@H](Cc2c[nH]c3ccccc23)NC(=O)[C@H](CC(=O)O)NC(C)=O)CSCc2cccc(n2)CSC[C@@H](C(N)=O)NC1=O [GIP-386, Ac-Asp-Trp-5Clw-Hyp-Ala-leu-[Cys(2Lut)-Thp-Leu-Ile-Cys]-NH2] (Ac-DW[Trp(5-Cl)][Hyp]A[dL]C[Thp]LIC-NH2; linker 7-11 via Pyridine(2,6-diCH2)) |

The next lines start with the molecule.

| SMILES | IC50 [nM] |
| --- | --- |
| CC[C@H](C)[C@@H]1NC(=O)[C@H](CC(C)C)NC(=O)C2(CCOCC2)NC(=O)[C@@H](NC(=O)[C@@H](CC(C)C)NC(=O)[C@H](CCC(=O)O)NC(=O)[C@@H]2C[C@@H](O)CN2C(=O)[C@H](Cc2c[nH]c3ccc(Cl)cc23)NC(=O)[C@H](Cc2c[nH]c3ccccc23)NC(=O)[C@H](CC(=O)O)NC(C)=O)CCSSCC[C@@H](C(N)=O)NC1=O [GIP-363, Ac-Asp-Trp-5Clw-Hyp-Glu-leu-[Hey-Thp-Leu-Ile-Hcy]-NH2] (Ac-DW[Trp(5-Cl)][Hyp]E[dL][hCys][Thp]LI[hCys]-NH2; disulfide 7-11) | 10 to 79.4 |
| CC[C@H](C)[C@@H]1NC(=O)[C@H](CC(C)C)NC(=O)C2(CCOCC2)NC(=O)[C@@H](NC(=O)[C@@H](CC(C)C)NC(=O)[C@H](CCC(=O)O)NC(=O)[C@@H]2C[C@@H](O)CN2C(=O)[C@H](Cc2c[nH]c3ccc(Cl)cc23)NC(=O)[C@H](Cc2c[nH]c3ccccc23)NC(=O)[C@H](CC(=O)O)NC(C)=O)CSSC[C@@H](C(N)=O)NC1=O [GIP-364, Ac-Asp-Trp-5Clw-Hyp-Glu-leu-[Cys-Thp-Leu-Ile-Cys]-NH2] (Ac-DW[Trp(5-Cl)][Hyp]E[dL]C[Thp]LIC-NH2; disulfide 7-11) | 100 to 794 |
| CC[C@H](C)[C@H](NC(=O)[C@H](CC(C)C)NC(=O)[C@H](C)NC(=O)[C@H](CSCc1ccccc1)NC(=O)[C@H](CC(C)C)NC(=O)[C@H](CCC(=O)O)NC(=O)[C@@H]1CCCN1C(=O)[C@H](Cc1c[nH]c2ccccc12)NC(=O)[C@H](Cc1c[nH]c2ccccc12)NC(=O)[C@H](CC(=O)O)NC(=O)[C@H](Cc1ccc(O)cc1)NC(=O)[C@@H](N)CCSC)C(=O)N[C@@H](CSC)C(N)=O [GIP-368] (H-MYDWWPELC(Bn)ALIC(Me)-NH2) | 100 to 794 |
| CC[C@H](C)[C@H](NC(=O)[C@H](CC(C)C)NC(=O)[C@H](C)NC(=O)[C@H](CSC)NC(=O)[C@H](CC(C)C)NC(=O)[C@H](CCC(=O)O)NC(=O)[C@@H]1CCCN1C(=O)[C@H](Cc1c[nH]c2ccccc12)NC(=O)[C@H](Cc1c[nH]c2ccccc12)NC(=O)[C@H](CC(=O)O)NC(=O)[C@H](Cc1ccc(O)cc1)NC(=O)[C@@H](N)CCSC)C(=O)N[C@@H](CSCc1ccccc1)C(N)=O [GIP-369] (H-MYDWWPELC(Me)ALIC(Bn)-NH2) | > 1000 |
| CC[C@H](C)[C@@H]1NC(=O)[C@H](CC(C)C)NC(=O)C2(CCN(C(=O)CN3CCN(CC(N)=O)CCN(CC(N)=O)CCN(CC(N)=O)CC3)CC2)NC(=O)[C@@H](NC(=O)[C@@H](CC(C)C)NC(=O)[C@H](CCC(=O)O)NC(=O)[C@@H]2C[C@@H](N)CN2C(=O)[C@H](Cc2c[nH]c3ccc(Cl)cc23)NC(=O)[C@H](Cc2c[nH]c3ccccc23)NC(=O)[C@H](CC(=O)O)NC(=O)CCCC(=O)NC[C@H](O)[C@@H](O)[C@H](O)[C@H](O)CO)CSCc2cccc(n2)CSC[C@@H](C(=O)NC2CCN(CC(=O)N[C@H](CCC(=O)NC[C@H](O)[C@@H](O)[C@H](O)[C@H](O)CO)C(N)=O)CC2)NC1=O [GIP-370, AGLU-Glutar-Asp-Trp-5Clw-Tap-Glu-leu-[Cys(2Lut)-Apc(DOTAM)-Leu-Ile-Cys]-APAc-glu(AGLU)-NH2] ({NH(1-deoxy-D-glucityl)-Glutaryl}-DW[Trp(5-Cl)][Pro(4R-NH2)]E[dL]C[Api](DO3AM)LIC[X1][dE](NH(1-deoxy-D-glucityl))-NH2; linker 7-11 via Pyridine(2,6-diCH2)) | < 10 |
| CC[C@H](C)[C@@H]1NC(=O)[C@H](CC(C)C)NC(=O)[C@](C)(CCCCNC(=O)CN2CCN(CC(=O)O)CCN(CC(=O)O)CCN(CC(=O)O)CC2)NC(=O)[C@@H](NC(=O)[C@@H](CC(C)C)NC(=O)[C@H](CCC(=O)O)NC(=O)[C@@H]2C[C@@H](N)CN2C(=O)[C@H](Cc2c[nH]c3ccc(Cl)cc23)NC(=O)[C@H](Cc2c[nH]c3ccccc23)NC(=O)[C@H](CC(=O)O)NC(=O)CCCC(=O)NC[C@H](O)[C@@H](O)[C@H](O)[C@H](O)CO)CSCc2cccc(n2)CSC[C@@H](C(=O)NC2CCN(CC(=O)N[C@H](CCC(=O)NC[C@H](O)[C@@H](O)[C@H](O)[C@H](O)CO)C(N)=O)CC2)NC1=O [GIP-371, AGLU-Glutar-Asp-Trp-5Clw-Tap-Glu-leu-[Cys(2Lut)-Amk(DOTA)-Leu-Ile-Cys]-APAc-glu(AGLU)-NH] ({NH(1-deoxy-D-glucityl)-Glutaryl}-DW[Trp(5-Cl)][Pro(4R-NH2)]E[dL]C[αMeK](DOTA)LIC[X1][dE](NH(1-deoxy-D-glucityl))-NH2; linker 7-11 via Pyridine(2,6-diCH2)) | < 10 |
| CC[C@H](C)[C@@H]1NC(=O)[C@H](CC2CCCCC2)NC(=O)C2(CCOCC2)NC(=O)[C@@H](NC(=O)[C@@H](CC(C)C)NC(=O)[C@H](CCC(=O)O)NC(=O)[C@@H]2C[C@@H](O)CN2C(=O)[C@H](Cc2c[nH]c3ccc(Cl)cc23)NC(=O)[C@H](Cc2c[nH]c3ccccc23)NC(=O)[C@H](CC(=O)O)NC(C)=O)CSCc2cccc(n2)CSC[C@@H](C(N)=O)NC1=O [GIP-383, Ac-Asp-Trp-5Clw-Hyp-Glu-leu-[Cys(2Lut)-Thp-Cha-Ile-Cys]-NH2] (Ac-DW[Trp(5-Cl)][Hyp]E[dL]C[Thp][Cha]IC-NH2; linker 7-11 via Pyridine(2,6-diCH2)) | < 10 |
